Experimental findings from the METLIN SMRT retention time set (Domingo-Almenara et al. 2019) are described below.

The structures appear in SMILES notation.

This data set is described as follows: gradient 5% acetonitrile 3 min, to 50% in 2 min, to 85% in 15 min, held 3 min, 100 µL/min. The following applies: column: Zorbax Extend-C18 2.1 x 50 mm; eluents: water / acetonitrile, 0.1% formic acid. In a few lines: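 In both positive and negative ionization mode, a quadrupole time-of-flight mass spectrometer coupled to HPLC analyzed pure standards run in mixtures of ~100 molecules. The Zorbax Extend-C18 column (2.1 × 50 mm, 1.8 μm) was operated at 100 μL/min with water and acetonitrile, each containing 0.1% formic acid. The dead volume was 40 μL and the dwell volume 900 μL. Retention time came from adduct peaks that were computationally picked and individually inspected by hand.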
Molecule `COC(=O)c1cccc(C(=O)Nc2ccc(F)cc2C)n1` registered an RP-LC retention time of 853 s.

Molecule `O=C(NCC#CCN1CCc2ccccc2C1)c1ccc(Cl)s1` showed an RP-LC retention time of 587 s. The figure for `COc1ccc2c(c1)C1(CCN(C(=O)c3ccccc3Cl)C1)C(=O)N2` (stereo not given) is 708 s; for `CCN1CCN(C(=O)C2CCCN(S(=O)(=O)c3cc(-c4noc(C)n4)cs3)C2)CC1` (stereo not given) it is 612 s; for `O=C(C1CC(=O)N(c2ccc(F)cc2)C1)N1CCC(c2c[nH]c3ccccc23)CC1` (stereo not given) it is 810 s. The figure for `Cc1sc(C)c(S(=O)(=O)NCCc2ccccc2)c1-c1cc(C(F)(F)F)on1` is 1180 s; for `CN(C)c1ccc(NC(=O)Cn2c(=O)cc(-c3nc(C4CC4)no3)c3ccccc32)cc1` it is 697 s. As for `O=c1ccc(-c2cccs2)nn1CCNS(=O)(=O)c1ccc(F)c(Cl)c1`, the figure is 796 s; as for `COC(=O)CNC(=O)NC(C)C(=O)N1CCc2ccccc21` (stereo not given), 662 s; as for `CN(C1CCc2nn(CC3CC3)c(=O)n2CC1)S(=O)(=O)c1ccccc1F` (stereo not given), 706 s. In turn, `Cc1nn(CC(=O)NCCCOC(C)C)c(=O)c2c(-n3cccc3)n(-c3ccc(Cl)cc3)nc12` showed an RP-LC retention time of 997 s. As for `Cc1noc(C)c1-c1ccc(S(=O)(=O)Nc2cccc(Br)c2)cc1`, the figure is 1000 s; as for `COc1ccccc1NC(=O)Cn1c(=O)cc(-c2nc(C3CC3)no2)c2ccccc21`, 1280 s.

Molecule `CCn1c(C(=O)NCCN2CCCCCC2)c(N2CCCC2=O)c2cc(F)ccc21` showed an RP-LC retention time of 664 s. As for `CCCN1C(=O)c2cc(S(=O)(=O)Nc3ccc(C)cc3F)ccc2Oc2cccnc21`, the figure is 1080 s; as for `Cc1ccc(Cn2nc3ccc(S(=O)(=O)N4CCCC4)cn3c2=O)cc1C`, 952 s. The figure for `Cc1cccc(-c2ncccc2CNS(=O)(=O)c2ccccc2C)c1` is 725 s; for `CCCCNC(=O)Cc1nnc(-c2ccc(OC)cc2)o1` it is 736 s; for `Cc1ccccc1-c1cn2ccn(-c3cccc(Cl)c3)c(=O)c2n1` it is 883 s. Regarding `CCN1CCN(C(=O)c2c(C)sc3ccn(CC(C)C)c(=O)c23)CC1`, the RP-LC retention time was determined as 598 s. The figure for `CCOC(=O)N1CCC(NC(=O)c2csc(-n3cccc3)n2)CC1` is 760 s. As for `CCOc1ccc(-c2noc(CN3C(=O)COc4ccc(S(=O)(=O)CC)cc43)n2)cc1OC`, the figure is 873 s; as for `Cc1cc(N2CCN(C)CC2)nc2ccc(NC(=O)Nc3ccccc3Br)cc12`, 609 s; as for `COc1ccc(-c2cc3nc(C)cc(Nc4ccc(C(N)=O)cc4)n3n2)cc1OC`, 586 s. The figure for `CCC(N)Cc1c[nH]c2ccccc12` (stereo not given) is 646 s; for `CCc1ccc2[nH]c3c(c(=O)c2c1)CN(CC(=O)NCc1ccc2c(c1)OCO2)CC3` it is 624 s; for `COc1cccc(-c2cc(C(=O)N3CCCC3c3c(C)noc3C)on2)c1` (stereo not given) it is 872 s. Consider `CCC(C)NC(=O)C1CCN(Cc2cn(C)c3ccc(Cl)cc23)CC1` (stereo not given), for which the RP-LC retention time is 673 s. The figure for `O=C(Cn1nc(N2CCCCCC2)c2ccccc2c1=O)Nc1ccc(Cl)cc1` is 1160 s.

`Cc1cc(=O)n(CC(=O)Nc2ccccc2F)c(N)n1` showed an RP-LC retention time of 581 s. As for `CCCNC(=O)c1cn(-c2cc(-c3nc(C)no3)ccn2)cn1`, the figure is 706 s; as for `CC(C)CNC(=O)CN1CCN(Cc2ccc(F)cc2Cl)C1=O`, 790 s. The figure for `Cc1ccccc1Nc1cc(C)n2c(=O)n(Cc3cccnc3)nc2n1` is 750 s; for `CCn1c(=O)oc2cc(S(=O)(=O)N3CCC(CC(=O)N4c5ccccc5CC4C)CC3)ccc21` (stereo not given) it is 1010 s. The figure for `O=C(NCCc1c[nH]c2ccccc12)C1CCCN(c2nnc(N3CCCC3=O)s2)C1` (stereo not given) is 690 s; for `Cc1nnc(CNC(=O)OC(C)(C)C)n1-c1ccccc1` it is 624 s. The molecule `COc1ccc(C)cc1NS(=O)(=O)c1ccc2c(c1)C(=O)N(C)c1ncccc1O2` registered an RP-LC retention time of 933 s. The figure for `O=C(Cn1c(=O)c2cc(-c3cccs3)nn2c2ncccc21)Nc1ccc(F)cc1F` is 872 s; for `CC(NS(=O)(=O)c1ccc(Cl)c(-c2nnc(-c3ccccc3)o2)c1)C(=O)O` (stereo not given) it is 819 s.

Regarding `Cc1ccc(-n2nnc(C(=O)O)c2-c2ccccn2)cc1`, the RP-LC retention time was 670 s.

`COC(=O)c1cc(C2CC2)nc2c1c(=O)n(Cc1ccc(F)cc1)c(=O)n2C` returned an RP-LC retention time of 1090 s. `CCOC(=O)N1CCC(NC(=O)c2nc(-c3cnccn3)no2)CC1` showed an RP-LC retention time of 631 s.

Turning to `O=C(COc1ccc(F)cc1)N1CCN(c2nc(CN3CCCCC3)cs2)CC1`, the RP-LC retention time was 655 s. As for `CCOc1ccccc1NC(=O)N1CCCC(Cn2cnc3cccnc32)C1` (stereo not given), the figure is 723 s; as for `CN(CCc1noc(-c2ccc(F)cc2)n1)C(=O)Nc1ccccc1F`, 882 s. `O=C(Cn1c(=O)oc2ccccc21)NCCc1csc2nc(-c3ccccc3F)nn12` yielded an RP-LC retention time of 746 s.

Consider `CCc1onc(C)c1C1CCCN1C(=O)Nc1cccc(C)c1` (stereo not given), for which the RP-LC retention time was determined as 842 s.

For the molecule `O=C(c1ccccc1Br)N1CCc2nc[nH]c2C1`, the RP-LC retention time amounted to 563 s. As for `Cc1nnc(C2CCCCCN2C(=O)CCc2c(C)nn(C)c2C)o1` (stereo not given), the figure is 608 s; as for `CC(NC(=O)Cn1cc(C(=O)C2CC2)c2ccccc21)c1ccc2c(c1)OCCCO2` (stereo not given), 866 s; as for `Cc1ccc(C)c(CNC(=O)c2nnc(-c3ccc(S(=O)(=O)N4CCC(C)CC4)cc3)o2)c1`, 1160 s.

`CCC1(CC)NC(=O)N(CC(=O)Nc2ccc(C(=O)OC)cc2)C1=O` showed an RP-LC retention time of 671 s. As for `COC(=O)[C@H](Cc1ccc(C#Cc2ccccc2)cc1)NC(=O)C[C@H]1CCCN(C(=N)N)C1`, the figure is 772 s; as for `CCN1CCN(CCNC(=O)c2cc(-c3ccc(Cl)cc3)cn2C)CC1`, 644 s; as for `CSc1ccc(CNC(=O)CCc2c(-c3ccc(F)cc3)nc3ccccn23)cc1`, 692 s. Turning to `O=C(CCSc1ccccc1)NCC1CCN(C(=O)COc2ccccc2)CC1`, the RP-LC retention time came out at 757 s.

Turning to `CC(NC(=O)c1cc2ccccc2[nH]1)C(=O)N1CCN(c2ccccn2)CC1` (stereo not given), the RP-LC retention time was 612 s. The figure for `CCCCCNC(=O)C1CCN(c2nccnc2Sc2ccc(C)cc2)CC1` is 1100 s. Molecule `CCN(CC)S(=O)(=O)c1cc(-c2nnc(-c3ccc(Br)cc3)o2)ccc1C` displayed an RP-LC retention time of 1230 s. `Cc1ccccc1C(=O)CC1(O)C(=O)Nc2ccc(F)cc21` (stereo not given) came in with an RP-LC retention time of 730 s.

As for `O=C(Nc1ccc(Nc2ccccc2)cc1)Nc1ccccc1Cl`, the RP-LC retention time stood at 1130 s.

Molecule `Cc1nc(-c2cnccn2)nc2c1CCC(=O)N2Cc1cccc(F)c1` showed an RP-LC retention time of 733 s. For `CCC(C)C1Nc2ccc(C(=O)NCCCOC)cc2NC1=O` (stereo not given), the RP-LC retention time was 653 s. As for `COCCC1(NC(=O)C2CC2)CCN(S(=O)(=O)c2c(C)noc2C)CC1`, the figure is 740 s.

On to `O=C(C1CCCN(c2nnc(-n3cccc3)s2)C1)N1CCN(c2ccccc2)CC1` (stereo not given), for which the RP-LC retention time was found to be 931 s.

`CN(C)CCn1c2c(c(SCC(=O)Nc3ccc(Cl)cc3)nc1=O)CCC2` yielded an RP-LC retention time of 656 s. As for `Cc1noc(C)c1C(=O)N1CC(c2nc(CCOC3CCCC3)no2)C1`, the figure is 788 s. In the case of `COc1ccc(-c2nnc3ccc(SCC(=O)Nc4cc(C)on4)nn23)cc1OC`, the RP-LC retention time stood at 606 s. `COCCn1cc2c3c(cccc31)CN(C(=O)Nc1cc(OC)c(OC)c(OC)c1)CC2` yielded an RP-LC retention time of 825 s. The figure for `Cn1cc(-c2ccncc2)cc1C(=O)N1CCN(c2ccccc2Cl)CC1` is 671 s. The figure for `O=C(c1ccco1)N1CCCC1c1nc(C2CCOCC2)no1` (stereo not given) is 673 s.

Take `COCc1nc(C2CCN(C(=O)NCC(C)C)C2)no1` (stereo not given): the RP-LC retention time is 636 s. The figure for `Cc1nn(CC(=O)NCCCN2CCc3ccccc3C2)c(=O)c2noc(C)c12` is 597 s; for `COc1cc(-c2nc3ncccn3c2NC2CCCCC2)cc(OC)c1OC` it is 724 s. As for `Cn1nnc2cc(-c3noc(CN4C(=O)COc5ccccc54)n3)ccc21`, the figure is 803 s. As for `COc1ccc(C(=O)Nc2nc(-c3ccc4c(c3)N(C)C(=O)CO4)c(C)s2)cc1OC`, the figure is 906 s; as for `Cc1ccn2cc(-c3ccc(NS(=O)(=O)c4cc(Cl)ccc4Cl)cc3)nc2n1`, 691 s; as for `CN1C(=O)C2CCCCN2c2ccc(C(=O)NCCC3=CCCCC3)cc21` (stereo not given), 993 s. As to `CCc1cccc(NC(=O)Cn2nc3cc(C)nc(Nc4ccc(C)cc4)n3c2=O)c1`, the RP-LC retention time was determined as 1140 s. As for `Cn1c(=O)c2ccn(CC(=O)N3CCN(c4ccccn4)CC3)c2n(C)c1=O`, the figure is 546 s.
